A word on the melting point: it is the temperature of the solid-liquid transition. `CCC(C)CNC(=O)c1ccc2cccc(Cc3ccc(C(=O)OC)cc3OC)c2c1` (configuration not stated) yielded a melting point of 134 to 135 °C.

As for `N#Cc1onc(-c2ccccc2)c1-c1ccc(S(N)(=O)=O)cc1`, the melting point fell in the range of 218 to 219 °C.

The compound `ClCc1c(Br)c(Br)c(CCl)c(Br)c1Br` showed a melting point of 232 to 233 °C.

In turn, `COc1ccc(CN2CCN(CCCOc3ccc4c(C)cc(=O)[nH]c4c3)CC2)cc1` registered a melting point of 167 to 168 °C.

With `O=C(O)C=C1SC(=Nc2ccc(Cl)c(Cl)c2)N(c2ccc(Cl)c(Cl)c2)C1=O`, the melting point was 221 to 222 °C.

Regarding `Cc1ccc(C2CCN(C(=O)CCC(=O)c3ccc4c(c3)CN(C)CC4)CC2)cc1`, the melting point lay within 97 to 99 °C.

`Cn1cc(-c2ccc(Br)cc2)c(=O)c(-c2cccc(C(=O)O)c2)c1` displayed a melting point of 259 to 263 °C.

Compound `OCCC1(CCO)c2ccccc2Sc2ccccc21` displayed a melting point of 132 to 135 °C.

In turn, `CC(=NOCCOc1ccc(CC2SC(=O)N(C(c3ccccc3)(c3ccccc3)c3ccccc3)C2=O)cc1)c1ccc(N(C)S(=O)(=O)c2ccccc2)cc1` (configuration not stated) had a melting point of 143 to 145 °C.

With `O=[N+]([O-])c1ccc(-c2nc(-c3ccco3)no2)c(Cl)c1`, the melting point was 124 to 125 °C.

`O=C(O)CCCNC1=NS(=O)(=O)c2ccccc21`: the melting point was 200 to 202 °C.

With `CCCCN(C)c1c(-c2ccc(OC)cc2)sc2ccccc12`, the melting point was 61 to 62 °C.

With `O=c1c2ccc(O)cc2oc2c(O)c(O)ccc12`, the melting point is over 300 °C.

Consider `CC1c2ccccc2COc2ccc(C(=O)O)cc21` (configuration not stated), for which the melting point was in the range of 224 to 226 °C.

In the case of `COCCCNc1nc(N)c(SC)c(F)n1`, the melting point was 48 to 64 °C.

`CCCCn1nc2c(N)nc3ccccc3c2c1CCCS(=O)(=O)c1ccccc1` yielded a melting point of 206 to 207 °C.

For `COC(=O)Nc1nc2cc(C(c3cccc(Cl)c3)n3ccnc3)ccc2[nH]1` (configuration not stated), the melting point was found to be 168 °C.

In turn, `CCOC(=O)CN(Cc1cccnc1)c1ccc(C(O)(C(F)(F)F)C(F)(F)F)cc1` registered a melting point of 55 °C.

On to `CC(=O)NC[C@H]1CN(c2ccc(-c3ncno3)c(F)c2)C(=O)O1`, for which the melting point fell in the range of 199 to 200 °C.

For the compound `CC1(C)CCSc2cc(C(=O)Nc3ccc(C(=O)O)cc3)ccc21`, the melting point lay in the range of 274 to 276 °C.

In turn, `C(=C/c1cn(C(c2ccccc2)(c2ccccc2)c2ccccc2)cn1)/CCOCc1ccccc1` had a melting point of 101 to 104 °C.

For the compound `COc1ccc2ccccc2c1CCl`, the melting point was 122 to 123 °C.

On to `C=CCN1CCN(c2nc3cccccc-3n2)CC1`, for which the melting point is 108 to 111 °C.

The compound `O=C(Nc1ccccc1)C1=C(N2CCCCC2)COC1=O` displayed a melting point of 157 to 158 °C.

On to `Cc1nc(-c2ccc(-c3ccc(C(=O)Nc4ccc(Br)c(OCCN(C)C)c4)cc3)c(C)c2)no1`, for which the melting point lay within 138 to 140 °C.

With `Cc1[nH]cnc1CC1CCc2c(C)c3ccccc3n2C1=O` (configuration not stated), the melting point fell in the range of 226 to 229 °C.

The compound `CC(C)c1nsc(N=CN(C)C)c1C#N` yielded a melting point of 95 to 97 °C.

Turning to `N#Cc1ccc2nc(C(=O)NCc3cccc(CNC(=O)c4nc[nH]n4)c3)[nH]c(=O)c2c1`, the melting point was 218 to 219 °C.

In turn, `O=C(NCC(F)(F)F)C1(CCCCc2ccc(NS(=O)(=O)c3ccc([N+](=O)[O-])cc3)cc2)c2ccccc2-c2ccccc21` had a melting point of 136 to 138 °C.

Compound `O=S1(=O)c2cccc3cccc(c23)N1CCCCN1CC=C(c2c[nH]c3ccccc23)CC1` returned a melting point of 203 °C.

Take `Cc1sc(N2C(=O)c3ccccc3C2=O)c(C(=O)c2ccc(Cl)cc2)c1CBr`: the melting point lay within 173 to 175 °C.

For `CCCC1CC1(C(=O)Nc1ccc(Br)cc1C)C(=O)OC` (configuration not stated), the melting point is 60 °C.

The compound `O=C(NCCc1cccs1)c1cc(Cl)ccc1Cl` gave a melting point of 99 to 100 °C.

On to `CCCCCCOc1ccc(C=[N+]([O-])CCC)cc1`, for which the melting point came out at 45 °C.

As for `O=C(O)c1c(O)cccc1-n1cccn1`, the melting point lay within 175 to 179 °C.

`CS(=O)(=O)c1cccnc1S(C)(=O)=O` returned a melting point of 175 to 176 °C.

On to `CC(C)(C(=O)O)c1ccc(C(=O)Nc2cn3c4c(ccc3n2)OCC4)cc1`, for which the melting point lay within 293 to 295 °C.

Take `CC(C)(C)c1cc(C=O)c2c(c1O)CCC2`: the melting point fell in the range of 213 to 214 °C.

In turn, `Cc1ccc(-c2c(C(=O)NCc3cc(C(F)(F)F)cc(C(F)(F)F)c3)n(C[C@H](C)CO)c(=O)c3ncccc23)cc1` came in with a melting point of 123 to 125 °C.

In the case of `Cc1cc(N(C)C(N)=O)no1`, the melting point lay within 146 to 147 °C.

With `COC(=O)[C@@H]1C[C@H](OC(=O)C(C)C)C(=O)[C@H]2[C@@]1(C)CC[C@H]1C(=O)O[C@H](c3ccoc3)C[C@]21C`, the melting point fell in the range of 155 to 157 °C.

Compound `COc1ccc(NC(=O)/C=C/c2c(F)c(F)c(F)c(F)c2F)cc1[N+](=O)[O-]` gave a melting point of 265 to 266 °C.

For the compound `CC(C)[C@@H]1O[C@](C#CC2CC2)(C(F)(F)F)c2cc(Cl)ccc2NC1=O` (relative stereo), the melting point amounted to 167 °C.

Compound `CCOC(=O)c1ccc(Cc2nc3n(-c4c(Cl)cc(Cl)cc4Cl)[nH]c(C(C)C)c-3c(=O)n2)cc1` registered a melting point of 233 to 235 °C.

The compound `Cn1cc(C(=O)NCc2ccc(Cl)cc2)c(=O)c2cc(CN3CCOCC3)cc(C#CCN3CCC(O)C3)c21` (configuration not stated) came in with a melting point of 144 to 146 °C.

Compound `COC(=O)c1cc(OCc2nc(-c3ccccc3)oc2C)no1` yielded a melting point of 123 to 124 °C.

As for `O=C(OC(=O)N(c1ccccc1)c1ccccc1)N(c1ccccc1)c1ccccc1`, the melting point fell in the range of 159 to 162 °C.

Consider `N=C(N)NCCCOc1ccc2c(c1)NC(=O)C(CCC(=O)O)C2` (configuration not stated), for which the melting point fell in the range of 157 to 159 °C.

`O=c1c(-c2nc3ccccc3[nH]2)coc2ccccc12`: the melting point came to 154 °C.

As for `Cc1cc(Nc2ccn(-c3ccccc3)n2)cc(C)c1O`, the melting point lay within 154 to 155 °C.

As to `CC(C)C(CO)NC(=O)c1nsc2ccc(-n3c(=O)cc(C(F)(F)F)n(C)c3=O)cc12` (configuration not stated), the melting point is 120 °C.

With `COC(=O)C(C)C(C#Cc1ccccc1)c1ccc(OC)c(OC2CCCC2)c1` (racemic), the melting point lay in the range of 52 to 54 °C.

As to `O=S(=O)(Nc1ccc2c(OCc3coc(-c4ccc(C(F)(F)F)cc4)n3)cccc2c1)C(F)(F)F`, the melting point fell in the range of 205 to 207 °C.

As for `CCOC(=O)N[C@@H](C(=O)O)c1ccccc1`, the melting point fell in the range of 143 to 150 °C.

In turn, `CCn1c(=O)c2[nH]c(/C=C/c3cccc(OC)c3OC)nc2n(CC)c1=O` had a melting point of 288 to 289 °C.

Compound `CC(O)CCCCCc1ccc(-c2ccccc2)cc1` (configuration not stated) showed a melting point of 47 to 48 °C.

On to `Cc1cc(OC(F)(F)C(Cl)Cl)c([N+](=O)[O-])cc1S(=O)(=O)C=CC#N`, for which the melting point turned out to be 109 °C.

In the case of `Cc1c(Cc2ccccc2)c(=O)oc2cc(OCc3nnn[nH]3)cc(OCc3nnn[nH]3)c12`, the melting point fell in the range of 229 to 233 °C.

Regarding `CCc1nc(-c2ccc(OCCCN3C(=O)c4ccccc4C3=O)cc2)no1`, the melting point lay within 135 to 136 °C.

`Cc1ccc2c(c1)N=C(N1CCN(C)CC1)c1c(sc3ccccc13)N2` registered a melting point of 184 to 186 °C.

Turning to `OCCSCc1ccc(CSCCO)cc1`, the melting point lay in the range of 90 to 92 °C.

Take `CCc1cc2cc(OC)c(Cl)c(Cl)c2s1`: the melting point lay in the range of 73 to 74.5 °C.

As for `N[C@@H](Cc1ccccc1)[C@@H](O)C(F)(F)C(=O)NCc1ccccc1`, the melting point is 128 to 130 °C.

In turn, `COc1cc(N2CCN(C3CCN(c4cccc5cccnc45)CC3)CC2)c2ncccc2c1` had a melting point of 194 to 197 °C.

Turning to `CCN(CC)CCn1cc2c(c1)-c1ccc(Cl)cc1C(c1ccccc1Cl)=NC2`, the melting point fell in the range of 130 to 131 °C.

With `CN1CCC(c2c[nH]c3ccc(NC(=O)c4ccc(F)s4)nc23)CC1`, the melting point lay in the range of 244 to 245 °C.

`FC(F)(F)c1cc(C2CCCO2)c2cccc(C(F)(F)F)c2n1` (configuration not stated): the melting point was 61 to 61.7 °C.

On to `COc1cc(C(C)=O)ccc1OCCCN1C2CCC1CC(c1n[nH]c3cc(F)ccc13)C2` (configuration not stated), for which the melting point lay within 157 to 158 °C.

`CC(C)C1(C)N=C(c2ccccc2C(=O)O)N(O)C1=O` (configuration not stated) came in with a melting point of 186 to 188 °C.

As for `COc1cc2nc(N)nc(-c3ccccc3Br)c2cc1OC`, the melting point was in the range of 241 to 243 °C.

`CCN(CC)C(=O)c1cc(-n2c(=O)cc(C(F)(F)F)[nH]c2=O)c(F)cc1Cl` came in with a melting point of 253 to 254 °C.

The compound `CS(=O)(=O)c1ccc(-n2nc(C(=O)N3CCOCC3)cc2-c2ccc(-c3ccco3)cc2)cc1F` came in with a melting point of 221 to 222 °C.

In turn, `CCCC1=C(C(=O)OCC)C(c2cccc3ccsc23)c2c[nH]nc2N1` (configuration not stated) yielded a melting point of 166 °C.

The compound `C=CCc1cc(C(=O)OCC)ccc1OCC1(O)CN2CCC1CC2` (configuration not stated) gave a melting point of 143 to 145 °C.

The compound `COc1ccc(COC(=O)c2cc(Br)nn2-c2ncccc2Cl)cc1` yielded a melting point of 83 °C.

In turn, `Cc1nc(-c2cccc(C(F)(F)F)c2)oc1COc1ccc(CCC(=O)O)cc1` registered a melting point of 134 to 135 °C.

Compound `Cc1nc(NC(=O)c2ccccc2)sc1C(=O)NCc1cccc(Cl)c1` had a melting point of 198 to 199 °C.

On to `OC1CSC(Oc2cccc(-c3ccnc(Cl)c3)c2)C(O)C1O` (configuration not stated), for which the melting point came to 207 °C.

As to `Cc1ccccc1NC(=O)NC1N=C(c2ccccc2F)c2ccccc2N(CC(=O)N2CC3CCC(CC3)C2)C1=O` (racemic), the melting point lay within 167 to 172 °C.

Consider `Cc1nc(-c2ccc(C(F)(F)F)cc2)sc1CSc1ccc2c(c1)CC(C(=O)O)CO2` (configuration not stated), for which the melting point lay in the range of 139 to 140 °C.

In the case of `Cc1c(CO)oc2ccc(Cl)cc12`, the melting point was in the range of 112 to 113 °C.

Turning to `CC(C)Cn1c(-c2c(F)cccc2F)cnc(-n2cccn2)c1=O`, the melting point fell in the range of 91 to 92 °C.

In turn, `CCCC(=NOCC)C1=C(O)CC2(CSCCSC2)OC1=O` yielded a melting point of 108 to 110 °C.

The compound `Nc1ncc(-c2ccc(F)cc2)nc1C(=O)Nc1cccnc1` displayed a melting point of 193 to 197 °C.

On to `CNC1=NS(=O)(=O)N=C1NCCSCc1nc[nH]c1C`, for which the melting point lay in the range of 98 to 110 °C.

On to `CC1(C)CC(n2cncc2C(=O)OC2CCCCC2)c2ccccc2O1` (configuration not stated), for which the melting point was 128 °C.

`CCCSCCCCCCCCCC(=O)O`: the melting point was 42 to 43.5 °C.

For the origin of these results see a melting point compilation (Tetko et al.; mined from patent text by program, amines drawn as free bases though some values may be those of a salt).
